Assay results published in ChEMBL document CHEMBL1201862, “PubChem BioAssay data set” (2004).
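How tested: cells in 96-well plates exposed to compound for 48 hours at five concentrations. Abbreviation: GI50, concentration required for 50% inhibition of growth.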 Active and inactive are the calls of the source. No stated cut-off is given here; in the data, active = GI50 up to about 1.1 µM and inactive = higher.

Columns and labels:
Assay in all cases: inhibition of tumour cell growth, NCI panel, 48 h
[1] = system: HCT-15
[2] = system: NCI-H522
[3] = system: OVCAR-8
[4] = system: COLO 205
[5] = system: UO-31
[6] = system: K562
[7] = system: TK-10
[8] = system: NCI-H226
[9] = system: NCI-H23
[10] = system: UACC-62
[11] = system: NCI/ADR-RES
[12] = system: SF-268
[13] = system: HOP-62
[14] = system: SK-OV-3
[15] = system: U-251
[16] = system: KM12
[17] = system: BT-549
[18] = system: 786-0
[19] = system: RPMI-8226
[20] = system: SNB-75
[21] = system: M14
[22] = system: DU-145
[23] = system: HT-29
[24] = system: HCT-116
[25] = system: MDA-MB-231
[26] = system: A498
[27] = system: HOP-92
[28] = system: OVCAR-4
[29] = system: T47D
[30] = system: HCC 2998
[31] = system: MDA-MB-435
[32] = system: MCF7
[33] = system: SF-539
[34] = system: PC-3
[35] = system: OVCAR-3
[36] = system: UACC-257
[37] = system: IGROV-1
[38] = system: LOX IMVI
[39] = system: OVCAR-5
[40] = system: SNB-19
[41] = system: EKVX
[42] = system: MOLT-4
[43] = system: SK-MEL-5
[44] = system: SF-295
[45] = system: ACHN
[46] = system: RXF 393
[47] = system: A549
[48] = system: SN12C
[49] = system: NCI-H460
[50] = system: CAKI-1
[51] = system: SK-MEL-2
[52] = system: SK-MEL-28
[53] = system: SW-620
[54] = system: Hs-578T
[55] = system: CCRF-CEM
[56] = system: Malme-3M
[57] = system: SR
[58] = system: HL-60
[59] = system: MDA-N

COc1ccc(OC)c(C(Cc2ccnc3ccccc23)Cc2ccnc3ccccc23)c1
GI50 [1]: 6.44 µM
GI50 [2]: 6.32 µM (inactive)
GI50 [3]: > 10 µM (inactive)
GI50 [4]: 8.04 µM (inactive)
GI50 [5]: 6.68 µM (inactive)
GI50 [6]: 4.53 µM (inactive)
GI50 [7]: > 10 µM (inactive)
GI50 [8]: 9.57 µM (inactive)
GI50 [9]: > 10 µM (inactive)
GI50 [10]: > 10 µM (inactive)
GI50 [11]: 8.39 µM (inactive)
GI50 [12]: > 10 µM (inactive)
GI50 [13]: > 10 µM (inactive)
GI50 [14]: > 10 µM (inactive)
GI50 [15]: > 10 µM (inactive)
GI50 [16]: 7.29 µM (inactive)
GI50 [17]: 4.09 µM (inactive)
GI50 [18]: > 10 µM (inactive)
GI50 [19]: 5.18 µM (inactive)
GI50 [20]: 6.11 µM (inactive)
GI50 [21]: > 10 µM (inactive)
GI50 [22]: > 10 µM (inactive)
GI50 [23]: 6.5 µM (inactive)
GI50 [24]: 0.857 µM (active)
GI50 [25]: > 10 µM (inactive)
GI50 [26]: > 10 µM (inactive)
GI50 [27]: 4.09 µM (inactive)
GI50 [28]: 6.11 µM (inactive)
GI50 [29]: 6.25 µM (inactive)
GI50 [30]: > 10 µM (inactive)
GI50 [31]: 0.56 µM (active)
GI50 [32]: 4.93 µM (inactive)
GI50 [33]: > 10 µM (inactive)
GI50 [34]: 5.28 µM (inactive)
GI50 [35]: > 10 µM (inactive)
GI50 [36]: > 10 µM (inactive)
GI50 [37]: > 10 µM (inactive)
GI50 [38]: 5.36 µM (inactive)
GI50 [39]: > 10 µM (inactive)
GI50 [40]: > 10 µM (inactive)
GI50 [41]: 5.15 µM (inactive)
GI50 [42]: 5.79 µM (inactive)
GI50 [43]: 3.66 µM (inactive)
GI50 [44]: 6.71 µM (inactive)
GI50 [45]: > 10 µM (inactive)
GI50 [46]: > 10 µM (inactive)
GI50 [47]: > 10 µM (inactive)
GI50 [48]: > 10 µM (inactive)
GI50 [49]: 5.47 µM (inactive)
GI50 [50]: > 10 µM (inactive)
GI50 [51]: 9.73 µM (inactive)
GI50 [52]: > 10 µM (inactive)
GI50 [53]: > 10 µM (inactive)
GI50 [54]: 8.63 µM (inactive)
GI50 [55]: 8.57 µM (inactive)

COc1ccc(C(O)c2ccc3c(c2)OCO3)cc1 (configuration not stated)
GI50 [1]: > 100 µM
GI50 [2]: > 100 µM (inactive)
GI50 [3]: > 100 µM (inactive)
GI50 [4]: > 100 µM (inactive)
GI50 [5]: 74.1 µM (inactive)
GI50 [6]: > 100 µM (inactive)
GI50 [7]: > 100 µM (inactive)
GI50 [8]: > 100 µM (inactive)
GI50 [9]: > 100 µM (inactive)
GI50 [10]: > 100 µM (inactive)
GI50 [11]: 65.6 µM (inactive)
GI50 [12]: > 100 µM (inactive)
GI50 [13]: > 100 µM (inactive)
GI50 [14]: > 100 µM (inactive)
GI50 [15]: > 100 µM (inactive)
GI50 [16]: > 100 µM (inactive)
GI50 [17]: > 100 µM (inactive)
GI50 [18]: > 100 µM (inactive)
GI50 [56]: > 100 µM (inactive)
GI50 [20]: 1.94 µM (inactive)
GI50 [21]: > 100 µM (inactive)
GI50 [22]: > 100 µM (inactive)
GI50 [23]: > 100 µM (inactive)
GI50 [24]: > 100 µM (inactive)
GI50 [25]: > 100 µM (inactive)
GI50 [26]: > 100 µM (inactive)
GI50 [57]: 25.6 µM (inactive)
GI50 [27]: > 100 µM (inactive)
GI50 [28]: 67.6 µM (inactive)
GI50 [58]: > 100 µM (inactive)
GI50 [29]: 99.3 µM (inactive)
GI50 [30]: > 100 µM (inactive)
GI50 [31]: > 100 µM (inactive)
GI50 [32]: > 100 µM (inactive)
GI50 [33]: > 100 µM (inactive)
GI50 [34]: > 100 µM (inactive)
GI50 [35]: > 100 µM (inactive)
GI50 [36]: > 100 µM (inactive)
GI50 [37]: > 100 µM (inactive)
GI50 [38]: > 100 µM (inactive)
GI50 [39]: > 100 µM (inactive)
GI50 [40]: > 100 µM (inactive)
GI50 [41]: > 100 µM (inactive)
GI50 [59]: > 100 µM (inactive)
GI50 [42]: > 100 µM (inactive)
GI50 [44]: > 100 µM (inactive)
GI50 [45]: > 100 µM (inactive)
GI50 [46]: > 100 µM (inactive)
GI50 [47]: > 100 µM (inactive)
GI50 [48]: > 100 µM (inactive)
GI50 [49]: > 100 µM (inactive)
GI50 [50]: > 100 µM (inactive)
GI50 [52]: > 100 µM (inactive)
GI50 [53]: > 100 µM (inactive)
GI50 [55]: > 100 µM (inactive)

CCCCn1c(C)c(C)c2c1NN=C(C#N)S2(=O)=O
GI50 [1]: > 100 µM
GI50 [2]: 64.7 µM (inactive)
GI50 [3]: > 100 µM (inactive)
GI50 [4]: > 100 µM (inactive)
GI50 [5]: > 100 µM (inactive)
GI50 [6]: > 100 µM (inactive)
GI50 [7]: > 100 µM (inactive)
GI50 [9]: > 100 µM (inactive)
GI50 [10]: > 100 µM (inactive)
GI50 [11]: > 100 µM (inactive)
GI50 [12]: > 100 µM (inactive)
GI50 [13]: > 100 µM (inactive)
GI50 [14]: > 100 µM (inactive)
GI50 [15]: > 100 µM (inactive)
GI50 [16]: > 100 µM (inactive)
GI50 [17]: > 100 µM (inactive)
GI50 [18]: > 100 µM (inactive)
GI50 [19]: > 100 µM (inactive)
GI50 [56]: > 100 µM (inactive)
GI50 [20]: > 100 µM (inactive)
GI50 [21]: > 100 µM (inactive)
GI50 [22]: > 100 µM (inactive)
GI50 [23]: > 100 µM (inactive)
GI50 [24]: > 100 µM (inactive)
GI50 [25]: > 100 µM (inactive)
GI50 [57]: 75 µM (inactive)
GI50 [28]: > 100 µM (inactive)
GI50 [29]: > 100 µM (inactive)
GI50 [30]: > 100 µM (inactive)
GI50 [31]: > 100 µM (inactive)
GI50 [32]: > 100 µM (inactive)
GI50 [33]: > 100 µM (inactive)
GI50 [34]: > 100 µM (inactive)
GI50 [35]: > 100 µM (inactive)
GI50 [36]: > 100 µM (inactive)
GI50 [37]: > 100 µM (inactive)
GI50 [38]: > 100 µM (inactive)
GI50 [39]: > 100 µM (inactive)
GI50 [40]: > 100 µM (inactive)
GI50 [41]: > 100 µM (inactive)
GI50 [42]: > 100 µM (inactive)
GI50 [43]: > 100 µM (inactive)
GI50 [45]: > 100 µM (inactive)
GI50 [47]: > 100 µM (inactive)
GI50 [48]: > 100 µM (inactive)
GI50 [49]: > 100 µM (inactive)
GI50 [51]: > 100 µM (inactive)
GI50 [52]: > 100 µM (inactive)
GI50 [53]: > 100 µM (inactive)
GI50 [54]: > 100 µM (inactive)

COc1ccc2[nH]c3c(O)c(-c4c(C)cc5c([nH]c6ccc(OC)cc65)c4O)c(C)cc3c2c1
GI50 [2]: 4.93 µM (inactive)
GI50 [3]: 4.5 µM (inactive)
GI50 [7]: 4.45 µM (inactive)
GI50 [8]: 4.38 µM (inactive)
GI50 [11]: 4.24 µM (inactive)
GI50 [12]: 4.48 µM (inactive)
GI50 [13]: 4.83 µM (inactive)
GI50 [15]: 4.31 µM (inactive)
GI50 [16]: 4.24 µM (inactive)
GI50 [17]: 4.62 µM (inactive)
GI50 [18]: 4.91 µM (inactive)
GI50 [20]: 3.85 µM (inactive)
GI50 [21]: 4.13 µM (inactive)
GI50 [22]: 4.43 µM (inactive)
GI50 [24]: 4.22 µM (inactive)
GI50 [25]: 5.74 µM (inactive)
GI50 [27]: 4.51 µM (inactive)
GI50 [28]: 3.88 µM (inactive)
GI50 [29]: 9.86 µM (inactive)
GI50 [30]: 3.7 µM (inactive)
GI50 [33]: 4.86 µM (inactive)
GI50 [34]: 4.27 µM (inactive)
GI50 [35]: 4.35 µM (inactive)
GI50 [36]: 4.24 µM (inactive)
GI50 [37]: 4.34 µM (inactive)
GI50 [38]: 4.38 µM (inactive)
GI50 [40]: 4.69 µM (inactive)
GI50 [41]: 4.09 µM (inactive)
GI50 [45]: 4.66 µM (inactive)
GI50 [46]: 4.84 µM (inactive)
GI50 [47]: 4.05 µM (inactive)
GI50 [48]: 4.43 µM (inactive)
GI50 [49]: 3.98 µM (inactive)
GI50 [51]: 5.41 µM (inactive)
GI50 [52]: 5.55 µM (inactive)
GI50 [53]: 4.41 µM (inactive)
GI50 [54]: 6.28 µM (inactive)
